Experimental data taken from US9987379B2, “Molecular probes for imaging of myelin” (Case Western Reserve University, priority 2008, dated 2018).
Entries after “also recorded” stand apart in the source; their conditions may differ.

How the values were obtained:
Log P of CMC = format: physicochemical; conditions: method not stated
[1] = system: myelin in corpus callosum; assay: In vitro CMC tissue staining of mouse brain sections (wild-type and Plp-Akt-DD); format: binding
Experimental: Free floating sections were incubated in 1% H2O2/Triton-100 for 10 min, then incubated in a solution of test compounds (100 μM) in 1% DMSO/PBS for 30 min at room temperature. The sections were washed three times with PBS before cover-slipping with fluorescence mounting medium (Vectashield, Vector laboratories). […] The fluorescent nature of these coumarin derivatives allows for staining of mouse brain tissue sections in a way similar to other conventional myelin stains. The tissue staining represents a direct approach to evaluate the binding specificity of the test compounds for myelin sheaths. The myelinated corpus callosum region was then examined by fluorescent microscopy. […] For correlation, the MBP immunostaining was also conducted in adjacent sections (FIG. 10E).

[2] = system: myelin sheaths of the corpus callosum and cerebellum; assay: In situ CMC staining of myelin after i.v. injection; format: in vivo, mouse; conditions: 25 mg/kg tail vein, 1 hr post injection, wild-type and Plp-Akt-DD mice
Experimental: In this experiment, 25 mg/kg of CMC was administered through i.v. injection in the tail vein of 2-month old wild-type mice and Plp-Akt-DD mice Animals were sacrificed at 1 hr after injection through heart puncture. The brains were removed and fixed in 4% PFA. The brains were then sectioned and fluorescent images were directly acquired on a Zeiss Axiovert 200M inverted microscope (2.5× objective) with a AxioCam digital camera (Carl Zeiss Microlmagibg, Inc, Thornwood, N.Y.).
Following our in vitro studies, we investigated the ability of CMC to monitor myelin contents ex vivo in the mouse brain. A dose of 0.5 mg CMC (25 mg/kg) was injected via the tail vein into wild-type mice and Plp-Akt-DD mice. One hr postinjection, mice were perfused and brains were removed and sectioned as described above. CMC staining of myelin was then directly examined under fluorescent microscopy.

[3] = Stability of [125I]9 monitored by HPLC; format: physicochemical
From the text: The radiochemical identity of [^125I]9 was verified by co-injection with cold standard Compound 9. Following HPLC purification, [^125I]9 was obtained in 70% radiochemical yield with a radiochemical purity of >98% and a specific activity of 80 TBq/mmol As monitored by HPLC, [^125I]9 was found stable to be kept at room temperature for up to 8 hrs and in the refrigerator for up to 2 months.

[4] = Octanol-water partition coefficient measurement; format: physicochemical
From the text: The partition coefficient (PC) is an important parameter of brain permeability. PC values ranging 1.0˜3.5 often show good initial brain entry following i.v. injection (Wu, C.; Pike, V. W.; Wang, Y. Amyloid imaging: from benchtop to bedside. Curr Top Dev Biol 2005, 70, 171-213; Levin, V. A. Relationship of octanol/water partition coefficient and molecular weight to rat brain capillary permeability. J Med Chem 1980, 23, 682-684; Dishino, D. D.; Welch, M. J.; Kilbourn, M. R.; Raichle, M. E. Relationship between lipophilicity and brain extraction of C-11-labeled radiopharmaceuticals. J Nucl Med 1983, 24, 1030-1038. For this reason, we radioiodinated Compound 9 and quantitatively determined the lipophilicity of [^125I]9. Based on the conventional octanol-water partition measurement, the log Poct of [^125I]9 was determined as 2.5±0.1, which falls in the range for optimal brain entry.
Partition coefficients (PC) were measured by mixing the radioligands with 3 g (3.65 mL) 1-octanol and 3 g (3.0 mL) buffer (pH 7.40, 0.1 M phosphate) in a test tube. The test tube was vortexed for 3 mM at room temperature and then centrifuged (3500 rpm, 5 mM) 1 ml of samples from the 1-octanol and buffer layers were assayed for radioactivity content in a well γcounter. The partition coefficient was determined by calculating the ratio of cpm/g of 1-octanol to that of the buffer. […]

[5] = Brain uptake / permeability across the blood-brain barrier in mice; format: in vivo, mouse
Experimental: Encouraged by the aforementioned studies, we further evaluated the permeability of [^125I]9 across the blood brain barrier. Following bolus tail vein injection of [^125I]9 (0.2 ml, 0.185 MBq), the radioactivity concentration of [^125I]9 in the brain was determined at 2, 30, and 60 min post injection. […] The initial brain entry was 2.29±0.66% ID/g at 2 min post injection. At 30 min post injection, the brain radioactivity concentration reached its peak level (2.65±0.27% ID/g). […] Retention of [^125I]9 at later time points was likely due to binding to myelin membranes as indicated by aforementioned in vitro and in situ staining studies.
While under anesthesia, 0.1 mL of a saline solution (consisting of saline (2 mL, 9 mg/mL), propylene glycol (2 mL), ethanol (0.7 mL) and HCl (0.3 mL, […]))^25 containing 5 μCi of radioactive tracer, was injected into the tail veins of mice (Swiss-Webster, 2 month old, 2 mice per group). The mice were sacrificed by heart puncture at 2 mM, 30 mM, 60 min and 120 mM post injection under anesthesia. Brains were rapidly removed and weighed, and the brain uptake was expressed as percentage of injection dose per gram organ (% ID/g), which was calculated by a ratio of per gram tissue counts to counts of 1% of the initial dose (100 times diluted aliquots of the injected radioligand) measured at the same time.

[6] = system: myelinated corpus callosum and cerebellum; assay: In vitro autoradiography of mouse brain sections; format: binding; conditions: sagittal mouse brain sections, 1 hr incubation
Experimental: To further evaluate the binding specificity of [^125I]9 to myelin sheaths in the brain, in vitro autoradiography was carried out in mice.
Mouse brain sections were incubated in [^125I]9 (20% Ethanol, 4,380,000 cpm/16 ml) for 1 hr. The slides were quickly washed with PBS buffer (10 mM, pH 7.0) 3 times, saturated Li2CO3 in 40% ethanol (2×3 mM), 40% ethanol (2 mM) and H2O (30 sec). After drying by air, the slides were put in a cassette and exposed to film for 44 hrs to obtain images.

| Structure (SMILES) | logP (Log P of CMC) | staining contrast among the coumarin derivatives screened ([1]; 100 uM, mouse brain sections) | in vitro staining of myelin ([1]; 100 uM, wild-type mouse brain sections) | fluorescent intensity in Plp-Akt-DD mouse brain relative to wild-type mouse brain ([1]; corpus callosum, hypermyelinated Plp-Akt-DD vs wild-type) | brain entry and in situ labeling of myelin [2] | time found stable in the refrigerator ([3]; in the refrigerator) | time found stable at room temperature ([3]; room temperature) | log Poct [4] | brain radioactivity concentration ([5]; 2 min post tail vein injection) | brain radioactivity concentration ([5]; 30 min post tail vein injection) | brain radioactivity concentration ([5]; 60 min post tail vein injection) | brain radioactivity concentration ([5]; 120 min post tail vein injection) | autoradiographic labeling of brain sections [6] |
| --- | --- | --- | --- | --- | --- | --- | --- | --- | --- | --- | --- | --- | --- |
| Nc1ccc(-c2cc3ccccc3oc2=O)cc1 [CMC, 3-(4-aminophenyl)-2H-chromen-2-one] | 2.68 | highest contrast | selectively stained intact myelin tracks | 1.27 fold | highly permeable across the BBB and selectively localizes in myelinated regions; also recorded: entered the brain and selectively labeled myelin sheaths of the corpus callosum and cerebellum | – | – | – | – | – | – | – | – |
| Nc1ccc(C=Cc2ccc([125I])cc2)cc1 [[^125I]9, 4-[2-(4-[^125I]Iodo-phenyl)-vinyl]-phenylamine] | – | – | – | – | – | up to 2 months | up to 8 hrs | 2.5±0.1 | 2.29±0.66 % ID/g | 2.65±0.27 % ID/g | 2.05 ± 0.13 % ID/g | 1.12±0.23 % ID/g | distinct labeling of myelinated regions |
